Measurements taken from patent US20200003760A1, “IN-VITRO METHODS FOR CLASSIFYING DRUGS ACCORDING TO THEIR POTENTIAL TO CAUSE LIVER CELL INJURY” (Board of Trustees of Michigan State University, priority 2018, published 2020).
Entries after “also recorded” stand apart in the source; their conditions may differ. Where two headings read alike, the source gives them in different places.

How the values were obtained:
[1] = cited from earlier work; for True classification: IDILI in human patients; for IDILI liability: criteria of Xu et al. (2008)
[2] = system: HepG2 cells; test: Drug/cytokine-induced cytotoxicity (% LDH release) concentration-response in HepG2 cells; format: cell-based, human; parameters: key to Deltadiff: LDH release percentage points (drug/TNF Delta minus drug/VEH Delta); details: for R10 IFN: with IFN; for R10 TNF: with TNF; for R10 TNF/IFN / EC10 TNF/IFN: with TNF and IFN; for Deltadiff: Delta of drug/TNF curve minus Delta of drug/VEH curve (LDH percentage); for Emax / D10 (LDH rise of at least 10 points, yes/no): Homo sapiens; for TNF change: D10TNF − D10VEH; for cytotoxic interaction of drug with TNF / effect of IFN coexposure on the drug/TNF cytotoxic interaction / cytotoxicity of drug on its own (LDH release) / synergy with cytokines to kill HepG2 cells: HepG2, 24 h; for cytotoxic interaction of drug with TNF: TNF 10 ng/ml; for effect of IFN coexposure on the drug/TNF cytotoxic interaction: TNF and IFN 10 ng/ml each; for cytotoxicity of drug on its own (LDH release): absence of cytokines; for EC10 TNF / EC10 TNF/IFN / EC10 IFN: value corresponding to 10% of Delta; for EC10 TNF: with TNF 10 ng/ml; for EC10 TNF / EC10 TNF/IFN / EC10 / EC10 IFN: NA = no significant increase; for synergy with cytokines to kill HepG2 cells: TNF and/or IFN; for EC10: value corresponding to 10% of Delta (max-min); for EC10 IFN: with IFN 10 ng/ml
Procedure: Cells were passed or used for experiments when they reached approximately 80% confluence. Cells were used at passage 6-16.
HepG2 cells were plated at a density of 4×10^4 cells per well in black-walled, 96-well, tissue culture plates and were allowed to attach overnight before being treated with compounds. Drugs were reconstituted in vehicles consisting of sterile water or DMSO (concentration less than 0.5%). Cells were treated with various concentrations of the drug or its vehicle (control) alone or in combination with the cytokines TNF (10 ng/ml) and/or IFN (10 ng/ml) or their PBS vehicle (VEH). Cytotoxicity was evaluated as lactate dehydrogenase (LDH) activity released from the cells into culture medium using the Homogeneous Membrane Integrity Assay kit from Promega (Madison, Wis.).
Concentration-response curves were generated for 24 drugs, 14 of which are associated with human IDILI and 10 of which are not. […] This was necessary because four-parameter logistic modeling used in the statistical analysis requires well defined, sigmoidal concentration-response curves. Cells were exposed to drug/cytokine combinations for 24 hours. For analysis of drug concentration-response data, concentrations of each drug were expressed as a fraction of its Cmax.
Defining covariates: four-parameter logistic model. In the first phase, variables (potential covariates) for use in the classification analysis were defined from the analysis of drug concentration-response data. Initially, a one-way analysis of variance (ANOVA) was used as an omnibus test to determine if a particular treatment (e.g. drug alone or in combination with TNF and/or IFN) caused a significant change in LDH release relative to baseline (i.e., LDH release in the absence of drug, hereafter designated “min”). The criterion for significance for the ANOVA was set at α=0.01. A 1% level of significance was used to rule out more vigorously marginal relationships between concentration and response.
where LDH(x) is the percentage of LDH released at a given concentration x; x=[drug]/Cmax; min=the % LDH release at 0 drug concentration (i.e., baseline); and max=the maximal LDH response (i.e., maximum % LDH release).
where D10 is a categorical variable related to reaching a threshold LDH response above which a drug is classified as positively associated with IDILI. D10 is defined as 0 if Delta<10% LDH release and as 1 if Delta≥10% LDH release.
The base covariate R10 represents the [drug]/Cmax value associated with an increase in 10 LDH percentage points above min for a particular treatment condition and was determined by the equation:
R10 was considered to be 0 when the Delta<10% LDH (i.e. when D10=0).
EC50 quotient, EC10 quotient and R10 quotient represent the ratio between the EC50, EC10 or R10 of the drug/cytokine concentration-response curve and the respective value for the drug/VEH concentration-response curve. In some instances, the value derived from this calculation is indeterminate (i.e. when the denominator=0). In order to incorporate the quotient values into the classification models described below, the categorical variable “Q” was used to eliminate the possibility of the quotient being indeterminate. Q is defined as 0 if Delta VEH and/or Delta cytokine is <10% LDH and 1 if both Delta VEH and Delta cytokine are ≥10% LDH. […] The same condition was applied for calculation of EC10 quotient and R10 quotient.
Deltadiff represents the difference between the Delta of the drug/cytokine concentration-response curve and the Delta of the drug/VEH curve. In other words, Deltadiff=(Delta cytokine)−(Delta VEH). FIG. 1 graphically illustrates several of the covariates defined above. […] In addition to the covariates derived from the concentration-response curves, the maximal therapeutic plasma drug concentration (Cmax) in human patients was used in some models (Table 1).

[3] = maximal plasma concentration after pharmacologic dosing in human patients; cited from earlier work
[4] = 10 percent increase in LDH response above min, 0 when D10 = 0, drug alone (VEH)
[5] = 10 percent increase in LDH response above min, 0 when D10 = 0
[6] = HepG2, categorical, Delta threshold 10 LDH percentage points, drug alone (VEH), read-out: D10
[7] = HepG2, maximal LDH response, drug alone (VEH), 24 h, read-out: max
[8] = HepG2, categorical, Delta threshold 10 LDH percentage points, drug alone (VEH)

SMILES	True classification [1]	IDILI liability [1]	R10 [2, 4]	R10 IFN [2, 5]	R10 TNF [2, 5]	R10 TNF/IFN [2, 5]	Deltadiff [2]	Emax [2, 6]	Emax [2, 7]	TNF change ([2]; categorical)	Cmax [3]	cytotoxic interaction of drug with TNF [2]	cytotoxicity of drug on its own (LDH release) [2]	EC10 TNF [2]	EC10 TNF/IFN [2]	EC10 ([2]; drug alone (VEH))	EC10 IFN [2]	further results
O=C1CC2(CCCC2)CC(=O)N1CCCCN1CCN(c2ncccn2)CC1 [Buspirone]	IDILI−	IDILI−	0 [drug]/Cmax	0 [drug]/Cmax	0 [drug]/Cmax	0 [drug]/Cmax	0	< 10%	17.6%	0	0.005 µM							
O=C(O)Cc1ccccc1Nc1c(Cl)cccc1Cl [Diclofenac]				0 [drug]/Cmax	28.3 [drug]/Cmax	26.7 [drug]/Cmax	21.0		15.6%	1		synergized with TNF to cause cytotoxicity	caused no cytotoxicity on their own	23.9 [drug]/Cmax	23.2 [drug]/Cmax			R10 [2]: 0 [drug]/Cmax; effect of IFN coexposure on the drug/TNF cytotoxic interaction [2]: coexposure to IFN enhanced the cytotoxic interaction; Emax ([2]; HepG2, read-out: D10): < 10%
CC(C)C(=O)Nc1ccc([N+](=O)[O-])c(C(F)(F)F)c1 [Flutamide]	IDILI+	IDILI+	0 [drug]/Cmax	0 [drug]/Cmax	0 [drug]/Cmax	0 [drug]/Cmax	0.4	< 10%	24.6%	0	0.36 µM	very small but statistically significant increases in LDH release	statistically significant increase in LDH release; also recorded: very small but statistically significant increases in LDH release					synergy with cytokines to kill HepG2 cells [2]: did not synergize with cytokines to kill HepG2 cells
CC(C)Cc1ccc(C(C)C(=O)O)cc1 (stereo not drawn) [Ibuprofen]			51.7 [drug]/Cmax	51.3 [drug]/Cmax	14.4 [drug]/Cmax	15.5 [drug]/Cmax	3.9	> 10%	101%	0	164 µM	TNF significantly enhanced the cytotoxicity	statistically significant increase in LDH release	14.1 [drug]/Cmax	14.6 [drug]/Cmax	50.9 [drug]/Cmax	50.7 [drug]/Cmax	
C[C@H]1COc2c(N3CCN(C)CC3)c(F)cc3c(=O)c(C(=O)O)cn1c23 [Levofloxacin]			0 [drug]/Cmax	0 [drug]/Cmax	0 [drug]/Cmax	0 [drug]/Cmax	0	< 10%	14%	0	15.7 µM							
COc1c(N2C[C@@H]3CCCN[C@@H]3C2)c(F)cc2c(=O)c(C(=O)O)cn(C3CC3)c12 [Moxifloxacin]			0 [drug]/Cmax	0 [drug]/Cmax	0 [drug]/Cmax	0 [drug]/Cmax	0	< 10%	9.7%	0	6.2 µM							
CCc1ccc(CCOc2ccc(CC3SC(=O)NC3=O)cc2)nc1 (stereo not drawn) [Pioglitazone]	IDILI−	IDILI−	80.1 [drug]/Cmax	84.6 [drug]/Cmax	84.5 [drug]/Cmax	87.3 [drug]/Cmax	0.8		44.1%	0	2.67 µM		caused cytotoxicity on its own	72.8 [drug]/Cmax	81.8 [drug]/Cmax	71.4 [drug]/Cmax	74.2 [drug]/Cmax	synergy with cytokines to kill HepG2 cells [2]: not enhanced by the addition of cytokines; D10 (LDH rise of at least 10 points, yes/no) [2, 8]: > 10%
CC[C@H]1OC(=O)[C@H](C)C(=O)[C@H](C)[C@@H](O[C@@H]2O[C@H](C)C[C@H](N(C)C)[C@H]2O)[C@](C)(OC)C[C@@H](C)C(=O)[C@H](C)[C@H]2N(CCCCn3cnc(-c4cccnc4)c3)C(=O)O[C@]12C [Telithromycin]	IDILI+	IDILI+	76.6 [drug]/Cmax	81.3 [drug]/Cmax	50.5 [drug]/Cmax	39.3 [drug]/Cmax	−17.1		117%	0	2.77 µM	TNF significantly enhanced the cytotoxicity	statistically significant increase in LDH release	47.7 [drug]/Cmax	39.0 [drug]/Cmax	77.0 [drug]/Cmax	80.7 [drug]/Cmax	effect of IFN coexposure on the drug/TNF cytotoxic interaction [2]: coexposure to IFN enhanced the cytotoxic interaction; D10 (LDH rise of at least 10 points, yes/no) [2, 8]: > 10%
CCCC(CCC)C(=O)O [Valproic Acid]	IDILI+			51.3 [drug]/Cmax	23.3 [drug]/Cmax		37.1		44.5%	0	175 µM						23.4 [drug]/Cmax	
